The assay has as its system translocation of fibrillar adhesion in GFP-tensin transfected HFF cells. The assay is described as follows: Correlation analysis of fibrillar adhesion dynamics in time-lapse movies of GFP-tensin transfected cells treated with acto-myosin inhibitors. The assay is classed as cell-based. The settings on record: for duration till maximum respond after addition / translocation of fibrillar adhesion following addition: 2 mM Lat-A, 150 mM H-7 or 100 mM ML-7; for correlation between sequential frames following addition of inhibitor: Eq. 1, 2 mM Lat-A, 150 mM H-7 or 100 mM ML-7, before treatment <0.65. As to the method: HFF cells were analyzed by time-lapse fluorescence recording starting 24 hours after transfection with GFP-tensin as described (10). During the recording different inhibitors of acto-myosin contractility were added ([…]) at the time point indicated by the first arrow, and washed out at the time point indicated by the second arrow. In each digital movie, a constant square frame (I) of […] containing only fibrillar adhesions without focal contacts was acquired as a function of time. Correlation was calculated between pairs of subsequent time points (It and It+1) for the duration of the movie. Correlation between It and It+1 was calculated (according to Eq. 1, where N=It and M=It+1). The graphs present this correlation as a function of time (t); and
The basic idea of this novel approach is that correlation is a quantitative measure of image similarity. Correlation is defined as the normalized pixel-by-pixel multiplication of two normalized images M and N (Eq. 1), and it is higher when the similarity between the two images is higher. Thus, if, and only if, N and M are identical images the correlation gets its maximum value of 1. When N equals −M (inverted images) the correlation reaches its minimum value, −1, and when N and M are totally unrelated images the correlation approaches zero. The below correlation equation (Eq. 1) can be extended to evaluate the similarity of two images which, are displaced with respect to each other (Eq. 2). To illustrate how this can be applied to characterize dynamic processes consider 4 cases in which N and M are two images of the same field taken at two close time points: (i) a correlation which equals 1 indicates a lack of any change in the field (since N equals M); (ii) if all the objects in the field are translated one pixel along the x axis, such that Mx,y=Nx+1,y, the correlation defined above will be less then 1. Yet when the objects are bigger then one pixel they will overlap in the two images, and thus the value of the correlation between N and M will be still close to 1; (iii) if the objects are translated 100 pixels, such that Mx,y=Nx+100,y with no overlap between the objects in the two images, the correlation will be low. However there is a single translational vector ([a^max,b^max], Eq. 4), i.e. (1,0) for case (ii) and (100,0) for case (iii), that will bring the two images to perfectly overlap, Mx,y=Nx+a,y+b, and will raise the more general translated correlation (C, Eq. 2) back to its maximal value of unity; (iv) if the objects moved 100 pixels, but different ones moved to different directions, the correlation will be low for all possible translational vectors, since the two images never overlap.
Inhibitors of acto-myosin contractility, like latrunculin-A (Lat-A), H-7 and ML-7, block the translocation of fibrilar adhesion (Zamir et al., Nature Cell Biology, Vol. 2, 191-196, 2000). In order to follow the kinetics of this effect a correlation analysis according to Eq. 1 was applied on digital movies of GFP-tensin transfected cells before, during and after treatments with inhibitors. Before treatment, fibrilar adhesions were highly dynamic and thus the correlation between two sequential frames was low (<0.65, FIG. 2). Following the addition of Lat-A, H-7 or ML-7 the translocation of fibrillar adhesion was inhibited, leading to higher correlation between sequential frames (˜0.78, 0.81 and 0.92 for Lat-A, H-7 and ML-7, respectively). The duration till maximum respond to Lat-A was relatively short (˜8 minutes after addition), while the respond to H-7 and ML-7 were more gradual (˜50 minutes after H-7 addition and ˜80 minutes after ML-7 addition). After washing-out the drugs, the translocation of fibrillar adhesion recovered and the correlation dropped back to lower levels. The recovery from H-7 was relatively fast (<20 minutes) while recovery from Lat-A and ML-7 took relatively long time (>80 minutes).

Consider three compounds from patent publication US20060240404A1, “Methods of isolating genes encoding proteins of specific function and of screening for pharmaceutically active agents” (Yeda Research And Development Co. Ltd., priority 2000, published 2006).

Regarding `O=S(=O)(c1cccc2c(I)cccc12)N1CCCNCC1` [ML-7], the “duration till maximum respond after addition” value (“duration till maximum respond” for short) is approximately 80 min, the “translocation of fibrillar adhesion following addition” value is on record as “inhibited” and the “correlation between sequential frames following addition of inhibitor” value is on record as approximately 0.92.

Take `CC1CNCCN1S(=O)(=O)c1cccc2cnccc12` (stereo not shown) [H-7]: the “duration till maximum respond” value is approximately 50 min, the “translocation of fibrillar adhesion following addition” value is “inhibited” and the “correlation between sequential frames following addition of inhibitor” value was approximately 0.81. The “recovery of fibrillar adhesion translocation after washing-out the drug” value (after wash-out) is less than 20 min.

Regarding `C/C1=C/C(=O)O[C@@H]2C[C@@H](CC[C@H](C)/C=C\C=C\CC1)O[C@@](O)([C@@H]1CSC(=O)N1)C2` [Lat-A, latrunculin-A], the “duration till maximum respond” value is approximately 8 min, the “translocation of fibrillar adhesion following addition” value is given as “inhibited” and the “correlation between sequential frames following addition of inhibitor” value was approximately 0.78.
